The source made the active and inactive calls.

Assay [1] has as its target Cyclin-dependent kinase 17 (Homo sapiens, UniProt Q00537).
The target in assay [2] is Cyclin-dependent kinase 2 (Homo sapiens, UniProt P24941).
Assay [3] deals with T1, Eukaryotic translation initiation factor 5B (Homo sapiens, UniProt O60841).
T1 sequence (O60841 whole entry): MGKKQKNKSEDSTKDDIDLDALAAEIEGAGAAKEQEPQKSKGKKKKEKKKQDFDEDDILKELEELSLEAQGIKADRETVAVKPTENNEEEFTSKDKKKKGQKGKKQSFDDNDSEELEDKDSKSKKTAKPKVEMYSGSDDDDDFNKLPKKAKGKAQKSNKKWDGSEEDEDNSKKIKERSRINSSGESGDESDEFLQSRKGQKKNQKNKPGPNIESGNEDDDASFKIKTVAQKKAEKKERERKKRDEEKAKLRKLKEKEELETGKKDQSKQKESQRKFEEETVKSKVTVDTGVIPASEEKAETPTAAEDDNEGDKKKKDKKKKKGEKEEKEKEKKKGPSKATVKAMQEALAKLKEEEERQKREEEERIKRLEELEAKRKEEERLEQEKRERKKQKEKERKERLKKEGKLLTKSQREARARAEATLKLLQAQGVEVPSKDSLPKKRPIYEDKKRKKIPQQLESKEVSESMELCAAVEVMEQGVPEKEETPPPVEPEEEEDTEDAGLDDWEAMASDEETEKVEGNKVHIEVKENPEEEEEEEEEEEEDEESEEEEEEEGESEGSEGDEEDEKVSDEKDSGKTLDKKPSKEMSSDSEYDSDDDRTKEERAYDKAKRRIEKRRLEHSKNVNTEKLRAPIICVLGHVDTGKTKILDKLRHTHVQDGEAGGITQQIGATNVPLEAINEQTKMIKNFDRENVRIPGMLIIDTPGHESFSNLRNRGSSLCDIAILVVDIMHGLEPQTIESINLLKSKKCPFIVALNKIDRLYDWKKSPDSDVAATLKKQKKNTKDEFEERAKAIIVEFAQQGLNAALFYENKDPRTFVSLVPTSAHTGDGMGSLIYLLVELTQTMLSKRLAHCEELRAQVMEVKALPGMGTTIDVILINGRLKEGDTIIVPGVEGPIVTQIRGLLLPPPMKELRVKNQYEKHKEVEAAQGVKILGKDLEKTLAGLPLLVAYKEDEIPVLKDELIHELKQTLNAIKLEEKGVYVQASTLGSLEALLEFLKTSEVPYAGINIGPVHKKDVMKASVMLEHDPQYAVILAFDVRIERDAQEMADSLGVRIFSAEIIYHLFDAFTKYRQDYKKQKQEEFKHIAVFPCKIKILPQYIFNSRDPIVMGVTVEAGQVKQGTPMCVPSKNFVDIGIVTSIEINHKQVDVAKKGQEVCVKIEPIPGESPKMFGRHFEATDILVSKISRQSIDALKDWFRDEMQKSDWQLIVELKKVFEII

Assay [4] addresses T2, Isoleucine--tRNA ligase, mitochondrial (Homo sapiens, UniProt Q9NSE4).
T2 sequence (Q9NSE4 whole entry): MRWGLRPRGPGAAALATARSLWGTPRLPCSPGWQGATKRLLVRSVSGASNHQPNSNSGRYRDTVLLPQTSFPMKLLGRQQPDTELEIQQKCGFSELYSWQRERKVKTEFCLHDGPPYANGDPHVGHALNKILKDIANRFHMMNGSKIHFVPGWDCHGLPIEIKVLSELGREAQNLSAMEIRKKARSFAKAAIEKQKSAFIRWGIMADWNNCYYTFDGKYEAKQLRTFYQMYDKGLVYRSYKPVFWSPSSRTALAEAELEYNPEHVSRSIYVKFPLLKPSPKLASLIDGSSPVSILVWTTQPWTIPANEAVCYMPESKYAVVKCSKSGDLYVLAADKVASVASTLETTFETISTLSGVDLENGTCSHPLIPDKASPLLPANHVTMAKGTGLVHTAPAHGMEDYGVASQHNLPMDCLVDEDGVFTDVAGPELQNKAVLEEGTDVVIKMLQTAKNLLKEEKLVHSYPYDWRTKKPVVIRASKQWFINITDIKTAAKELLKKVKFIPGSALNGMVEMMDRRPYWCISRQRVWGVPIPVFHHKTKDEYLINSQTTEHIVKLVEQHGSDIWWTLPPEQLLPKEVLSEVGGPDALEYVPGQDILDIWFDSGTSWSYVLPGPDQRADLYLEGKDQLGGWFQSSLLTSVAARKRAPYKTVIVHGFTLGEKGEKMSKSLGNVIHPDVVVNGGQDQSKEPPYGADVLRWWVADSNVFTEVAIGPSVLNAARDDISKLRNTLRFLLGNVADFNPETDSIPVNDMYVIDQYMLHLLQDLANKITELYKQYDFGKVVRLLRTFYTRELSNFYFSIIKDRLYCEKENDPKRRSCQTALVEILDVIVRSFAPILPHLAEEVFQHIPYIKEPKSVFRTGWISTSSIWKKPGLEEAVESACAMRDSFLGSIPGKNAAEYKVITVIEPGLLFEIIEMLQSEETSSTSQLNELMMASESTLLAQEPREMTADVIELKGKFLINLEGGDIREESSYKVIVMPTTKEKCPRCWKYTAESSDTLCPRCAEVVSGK

The target in another assay is Myosin-10 (Homo sapiens, UniProt P35580).
Assay [5] has as its target Serine/threonine-protein kinase PAK 6 (Homo sapiens, UniProt Q9NQU5).
The target in assay [6] is PAS domain-containing serine/threonine-protein kinase (Homo sapiens, UniProt Q96RG2).
For assay [7], the target named is Serine/threonine-protein kinase pim-2 (Homo sapiens, UniProt Q9P1W9).
Assay [8] has as its target Serine/threonine-protein kinase N3 (Homo sapiens, UniProt Q6P5Z2).
For assay [9], the target named is Uncharacterized aarF domain-containing protein kinase 5 (Homo sapiens, UniProt Q3MIX3).
Note: in the data inactive means no Kd found up to 30 µM.

Sequence of Cyclin-dependent kinase 17 (Q00537 whole entry): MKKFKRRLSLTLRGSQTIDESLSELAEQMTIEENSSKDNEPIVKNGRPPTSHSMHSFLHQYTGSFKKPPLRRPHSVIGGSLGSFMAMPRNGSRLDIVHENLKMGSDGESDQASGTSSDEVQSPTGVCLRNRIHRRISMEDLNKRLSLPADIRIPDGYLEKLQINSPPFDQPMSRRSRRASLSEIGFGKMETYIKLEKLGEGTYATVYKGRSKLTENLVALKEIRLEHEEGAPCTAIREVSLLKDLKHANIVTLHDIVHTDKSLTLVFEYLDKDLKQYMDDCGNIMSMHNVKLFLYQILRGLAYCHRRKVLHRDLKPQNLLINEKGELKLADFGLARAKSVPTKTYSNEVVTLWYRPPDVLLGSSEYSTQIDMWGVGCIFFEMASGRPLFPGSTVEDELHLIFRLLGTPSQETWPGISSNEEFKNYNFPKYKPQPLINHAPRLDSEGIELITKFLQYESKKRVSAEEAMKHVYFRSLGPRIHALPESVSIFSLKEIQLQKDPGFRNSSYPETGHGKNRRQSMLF
Sequence of PAS domain-containing serine/threonine-protein kinase (Q96RG2 whole entry, the tested form may be a part): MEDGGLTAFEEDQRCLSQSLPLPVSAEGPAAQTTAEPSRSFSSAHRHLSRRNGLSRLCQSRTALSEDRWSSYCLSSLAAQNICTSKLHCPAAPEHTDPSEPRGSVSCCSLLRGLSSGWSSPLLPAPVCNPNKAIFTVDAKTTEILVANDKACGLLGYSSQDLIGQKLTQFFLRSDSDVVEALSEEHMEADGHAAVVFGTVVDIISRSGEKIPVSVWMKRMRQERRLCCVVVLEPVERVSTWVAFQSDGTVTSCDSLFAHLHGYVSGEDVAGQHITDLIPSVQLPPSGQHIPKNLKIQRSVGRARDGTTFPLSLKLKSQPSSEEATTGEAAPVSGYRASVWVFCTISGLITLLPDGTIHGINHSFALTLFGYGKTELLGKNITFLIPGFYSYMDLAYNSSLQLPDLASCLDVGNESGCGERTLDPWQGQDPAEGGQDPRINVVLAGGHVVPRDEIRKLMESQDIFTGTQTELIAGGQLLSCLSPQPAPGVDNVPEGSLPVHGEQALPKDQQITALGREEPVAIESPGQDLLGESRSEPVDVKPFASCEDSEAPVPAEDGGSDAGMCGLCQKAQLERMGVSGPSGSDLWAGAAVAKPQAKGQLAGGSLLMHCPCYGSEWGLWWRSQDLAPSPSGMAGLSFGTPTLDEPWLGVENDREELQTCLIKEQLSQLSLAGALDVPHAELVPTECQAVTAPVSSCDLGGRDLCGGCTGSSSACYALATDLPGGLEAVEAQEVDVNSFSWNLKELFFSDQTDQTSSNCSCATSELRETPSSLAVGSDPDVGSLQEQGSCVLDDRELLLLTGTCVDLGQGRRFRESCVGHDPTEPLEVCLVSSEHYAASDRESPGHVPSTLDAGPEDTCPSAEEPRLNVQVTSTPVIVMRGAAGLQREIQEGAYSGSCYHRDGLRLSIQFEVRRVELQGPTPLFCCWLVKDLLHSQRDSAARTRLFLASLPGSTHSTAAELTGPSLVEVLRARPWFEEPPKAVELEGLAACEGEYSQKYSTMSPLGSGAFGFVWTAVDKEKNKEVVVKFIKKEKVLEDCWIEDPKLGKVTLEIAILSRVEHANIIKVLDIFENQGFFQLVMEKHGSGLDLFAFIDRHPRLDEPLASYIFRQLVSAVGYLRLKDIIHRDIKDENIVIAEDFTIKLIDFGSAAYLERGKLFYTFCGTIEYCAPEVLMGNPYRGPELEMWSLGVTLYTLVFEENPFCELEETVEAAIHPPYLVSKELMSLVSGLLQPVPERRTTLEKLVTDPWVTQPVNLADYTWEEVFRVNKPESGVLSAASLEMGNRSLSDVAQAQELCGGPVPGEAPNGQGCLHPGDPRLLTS
Sequence of Serine/threonine-protein kinase N3 (Q6P5Z2 whole entry, the tested form may be a part): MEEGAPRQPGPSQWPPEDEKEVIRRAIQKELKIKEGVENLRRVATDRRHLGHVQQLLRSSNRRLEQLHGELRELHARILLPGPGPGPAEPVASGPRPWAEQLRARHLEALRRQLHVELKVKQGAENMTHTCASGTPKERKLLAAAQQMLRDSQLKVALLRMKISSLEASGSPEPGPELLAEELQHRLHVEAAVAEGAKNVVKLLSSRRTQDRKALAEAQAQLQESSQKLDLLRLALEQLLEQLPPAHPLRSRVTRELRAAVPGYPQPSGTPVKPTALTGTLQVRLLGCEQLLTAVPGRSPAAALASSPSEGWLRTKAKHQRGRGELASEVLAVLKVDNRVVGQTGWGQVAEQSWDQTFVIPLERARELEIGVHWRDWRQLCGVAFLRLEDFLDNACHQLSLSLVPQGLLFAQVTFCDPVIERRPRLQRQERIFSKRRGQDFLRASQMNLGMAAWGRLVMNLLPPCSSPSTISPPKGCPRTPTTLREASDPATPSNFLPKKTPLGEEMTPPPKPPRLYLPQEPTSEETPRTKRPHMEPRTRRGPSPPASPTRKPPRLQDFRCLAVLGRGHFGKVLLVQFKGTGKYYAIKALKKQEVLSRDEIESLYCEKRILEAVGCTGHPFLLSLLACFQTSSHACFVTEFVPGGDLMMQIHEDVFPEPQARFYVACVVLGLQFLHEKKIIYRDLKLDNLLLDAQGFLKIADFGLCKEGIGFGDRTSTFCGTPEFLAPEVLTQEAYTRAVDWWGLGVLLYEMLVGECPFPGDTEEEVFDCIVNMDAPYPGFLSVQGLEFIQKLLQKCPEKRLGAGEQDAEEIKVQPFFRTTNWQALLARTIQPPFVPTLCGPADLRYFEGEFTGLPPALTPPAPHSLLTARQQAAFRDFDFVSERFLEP
Sequence of Myosin-10 (P35580 whole entry): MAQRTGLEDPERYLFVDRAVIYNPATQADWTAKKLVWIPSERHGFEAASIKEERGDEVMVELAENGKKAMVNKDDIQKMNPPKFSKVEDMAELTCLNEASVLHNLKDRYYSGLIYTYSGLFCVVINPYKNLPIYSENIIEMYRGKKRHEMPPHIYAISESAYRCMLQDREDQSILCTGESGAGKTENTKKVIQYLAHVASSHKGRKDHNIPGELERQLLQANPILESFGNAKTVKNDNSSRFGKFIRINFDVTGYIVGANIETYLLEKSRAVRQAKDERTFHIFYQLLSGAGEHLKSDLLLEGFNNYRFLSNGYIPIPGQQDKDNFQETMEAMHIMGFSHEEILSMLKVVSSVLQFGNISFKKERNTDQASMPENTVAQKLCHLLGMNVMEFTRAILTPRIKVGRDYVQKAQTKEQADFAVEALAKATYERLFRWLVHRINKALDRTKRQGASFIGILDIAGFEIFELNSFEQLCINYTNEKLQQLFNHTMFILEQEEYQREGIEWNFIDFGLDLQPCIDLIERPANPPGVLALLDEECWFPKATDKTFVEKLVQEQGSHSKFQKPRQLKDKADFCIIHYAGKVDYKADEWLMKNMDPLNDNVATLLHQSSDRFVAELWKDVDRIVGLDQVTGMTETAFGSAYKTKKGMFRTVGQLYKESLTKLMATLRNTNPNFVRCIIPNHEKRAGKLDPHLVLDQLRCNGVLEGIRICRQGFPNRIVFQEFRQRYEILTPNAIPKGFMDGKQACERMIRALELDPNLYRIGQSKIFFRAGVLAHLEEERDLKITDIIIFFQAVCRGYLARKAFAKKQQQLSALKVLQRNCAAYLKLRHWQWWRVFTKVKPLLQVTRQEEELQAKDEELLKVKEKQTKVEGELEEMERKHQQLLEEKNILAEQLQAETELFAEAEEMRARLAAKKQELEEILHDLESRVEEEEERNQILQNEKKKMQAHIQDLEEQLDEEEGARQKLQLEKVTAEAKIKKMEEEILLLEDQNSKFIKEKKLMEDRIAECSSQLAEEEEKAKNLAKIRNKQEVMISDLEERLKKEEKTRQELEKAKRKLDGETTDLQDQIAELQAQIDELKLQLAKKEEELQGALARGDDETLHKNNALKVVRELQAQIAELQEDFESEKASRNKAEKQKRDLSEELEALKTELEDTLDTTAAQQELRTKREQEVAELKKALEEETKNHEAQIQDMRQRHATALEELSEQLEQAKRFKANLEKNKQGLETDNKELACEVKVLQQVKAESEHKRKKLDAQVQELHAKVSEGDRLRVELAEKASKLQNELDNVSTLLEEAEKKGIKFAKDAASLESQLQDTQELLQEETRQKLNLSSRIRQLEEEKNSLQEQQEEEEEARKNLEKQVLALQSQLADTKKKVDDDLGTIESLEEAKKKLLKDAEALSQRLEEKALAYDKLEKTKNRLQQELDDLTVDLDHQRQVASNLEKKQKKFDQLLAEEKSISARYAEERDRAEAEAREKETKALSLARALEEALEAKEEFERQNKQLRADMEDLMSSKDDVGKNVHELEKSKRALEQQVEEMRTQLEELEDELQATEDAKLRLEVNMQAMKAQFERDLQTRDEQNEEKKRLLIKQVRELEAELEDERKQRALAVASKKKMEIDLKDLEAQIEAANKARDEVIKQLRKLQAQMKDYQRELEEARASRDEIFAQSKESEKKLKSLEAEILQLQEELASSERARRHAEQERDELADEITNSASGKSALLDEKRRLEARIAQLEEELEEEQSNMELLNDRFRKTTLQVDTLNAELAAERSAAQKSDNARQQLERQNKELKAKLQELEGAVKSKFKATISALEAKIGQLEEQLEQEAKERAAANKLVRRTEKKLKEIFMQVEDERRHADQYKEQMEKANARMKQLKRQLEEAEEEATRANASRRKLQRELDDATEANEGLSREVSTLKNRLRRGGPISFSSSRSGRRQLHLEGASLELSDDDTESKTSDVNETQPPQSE
Sequence of Serine/threonine-protein kinase pim-2 (Q9P1W9 whole entry): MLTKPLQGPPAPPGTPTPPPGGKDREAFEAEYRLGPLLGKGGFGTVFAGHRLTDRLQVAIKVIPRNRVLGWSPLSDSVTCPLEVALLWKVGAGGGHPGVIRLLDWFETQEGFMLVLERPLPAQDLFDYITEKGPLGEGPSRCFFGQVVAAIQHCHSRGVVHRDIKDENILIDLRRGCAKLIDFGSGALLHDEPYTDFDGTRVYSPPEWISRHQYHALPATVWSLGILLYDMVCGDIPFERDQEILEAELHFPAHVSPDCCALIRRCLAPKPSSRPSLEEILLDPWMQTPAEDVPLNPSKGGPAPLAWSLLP

A word on the Kd: it is a measure of binding affinity in units of concentration. On to `Cc1ccc(-n2nc(C(C)(C)C)cc2NC(=O)NCc2cc(F)ccc2Oc2ccc3c(cnn3CCO)c2)cc1` [PEXMETINIB], for which the Kd is 0.402 µM (active) in [1]; > 30 µM (inactive) in assay [2]; > 30 µM (inactive) in assay [3]; > 30 µM (inactive) in assay [4]; > 30 µM (inactive) on Myosin-10; > 30 µM (inactive) in assay [5]. For the same compound, the Kd in [6], in assay [7] and in assay [8] was > 30 µM (inactive) throughout.

For `COc1ccc(-c2ccc3c(N4CCOC[C@@H]4C)nc(N4CCOC[C@@H]4C)nc3n2)cc1CO` [AZD-8055], the Kd (in [1]; in assay [2]; in assay [3]; in [4]; at Myosin-10; in assay [5]) was > 30 µM (inactive) in each case. In addition, the Kd in [6], in assay [7] and in [8] was > 30 µM (inactive) in each case.

As to `O=C(O)[C@]1(Cc2cccc(Nc3nccs3)n2)CC[C@@H](Oc2cccc(Cl)c2F)CC1` [MK-5108], the Kd (in assay [9]; in [1]; in [2]; in assay [3]; in assay [4]; at Myosin-10) was > 30 µM (inactive) throughout. The Kd in assay [5], in assay [6], in assay [7] and in assay [8] was > 30 µM (inactive) throughout.

`COc1cc2nccc(Oc3ccc(NC(=O)Nc4cc(C)on4)c(Cl)c3)c2cc1OC` [TIVOZANIB]: the Kd (in assay [9]; in [1]; in [2]; in [3]; in assay [4]; on Myosin-10) was > 30 µM (inactive) in each case. Moreover, the Kd in [5], in assay [6], in [7] and in [8] was > 30 µM (inactive) throughout.

As for `CC(=O)Nc1cccc(-n2c(=O)n(C3CC3)c(=O)c3c(Nc4ccc(I)cc4F)n(C)c(=O)c(C)c32)c1` [TRAMETINIB], the Kd (in [9]; in [1]; in assay [2]; in assay [3]; in assay [4]; on Myosin-10) was > 30 µM (inactive) each time. Moreover, the Kd in [5], in assay [6], in [7] and in [8] was > 30 µM (inactive) throughout.

Consider `CCc1cnn2c(NCc3ccc[n+]([O-])c3)cc(N3CCCC[C@H]3CCO)nc12` [DINACICLIB], for which the Kd (in assay [9]; in [3]; in assay [4]; on Myosin-10; in [5]; in assay [6]) was > 30 µM (inactive) throughout. For the same compound, the Kd in assay [7] and in assay [8] was > 30 µM (inactive) in each case.

For `OCCn1cc(-c2cnc3nnn(Cc4ccc5ncccc5c4)c3n2)cn1` [PF-04217903], the Kd (in assay [9]; in assay [1]; in [2]; in assay [4]; on Myosin-10; in [5]) was > 30 µM (inactive) throughout. In addition, the Kd in assay [6], in assay [7] and in assay [8] was > 30 µM (inactive) each time.

Consider `COCCNCc1ccc(-c2cc3nccc(Oc4ccc(NC(=S)NC(=O)Cc5ccc(F)cc5)cc4F)c3s2)nc1` [GLESATINIB], for which the Kd (in [9]; in [1]; in assay [2]; in assay [3]; in assay [4]; on Myosin-10) was > 30 µM (inactive) each time. Also, the Kd in [5], in assay [6], in assay [7] and in [8] was > 30 µM (inactive) in each case.

For the compound `CNC(=O)c1ccc(-c2cnc3ncc(Cc4ccc5ncccc5c4)n3n2)cc1F` [CAPMATINIB], the Kd (in [9]; in assay [1]; in assay [2]; in [4]; at Myosin-10; in assay [5]) was > 30 µM (inactive) each time. Besides, the Kd in assay [7] and in [8] was > 30 µM (inactive) each time.
